Laboratory results taken from ChEMBL document CHEMBL1143167, “Monoaryl-substituted salicylaldoximes as ligands for estrogen receptor beta” (J Med Chem, 2008).

Columns and labels:
[1] = biological target: Estrogen receptor beta (Homo sapiens) (UniProt Q92731); assay: Displacement of [3H]estradiol from purified full length human ERbeta receptor relative to estradiol
[2] = biological target: T1, Estrogen receptor (Homo sapiens) (UniProt P03372); assay: Displacement of [3H]estradiol from purified full length human ERalpha receptor relative to estradiol
T1 sequence (whole entry): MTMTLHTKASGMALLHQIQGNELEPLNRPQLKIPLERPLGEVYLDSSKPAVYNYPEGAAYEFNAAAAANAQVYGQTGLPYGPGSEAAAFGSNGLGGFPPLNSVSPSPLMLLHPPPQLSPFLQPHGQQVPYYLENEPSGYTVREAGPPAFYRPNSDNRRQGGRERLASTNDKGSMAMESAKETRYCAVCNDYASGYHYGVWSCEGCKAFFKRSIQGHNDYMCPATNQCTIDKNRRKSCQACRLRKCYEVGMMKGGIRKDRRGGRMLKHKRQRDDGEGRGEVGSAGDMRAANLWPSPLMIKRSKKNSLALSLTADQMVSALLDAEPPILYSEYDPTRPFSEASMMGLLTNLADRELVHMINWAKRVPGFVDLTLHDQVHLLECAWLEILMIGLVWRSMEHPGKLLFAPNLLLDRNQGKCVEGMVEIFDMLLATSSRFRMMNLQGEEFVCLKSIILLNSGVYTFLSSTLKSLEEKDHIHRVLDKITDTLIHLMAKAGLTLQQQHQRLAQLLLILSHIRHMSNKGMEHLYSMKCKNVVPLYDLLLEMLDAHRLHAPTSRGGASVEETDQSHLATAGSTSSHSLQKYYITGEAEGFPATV

Homo sapiens = species: Homo sapiens; assay: Selectivity ratio of human ERbeta receptor over human ERalpha receptor

Sequence of Estrogen receptor beta (Homo sapiens) (Q92731 whole entry): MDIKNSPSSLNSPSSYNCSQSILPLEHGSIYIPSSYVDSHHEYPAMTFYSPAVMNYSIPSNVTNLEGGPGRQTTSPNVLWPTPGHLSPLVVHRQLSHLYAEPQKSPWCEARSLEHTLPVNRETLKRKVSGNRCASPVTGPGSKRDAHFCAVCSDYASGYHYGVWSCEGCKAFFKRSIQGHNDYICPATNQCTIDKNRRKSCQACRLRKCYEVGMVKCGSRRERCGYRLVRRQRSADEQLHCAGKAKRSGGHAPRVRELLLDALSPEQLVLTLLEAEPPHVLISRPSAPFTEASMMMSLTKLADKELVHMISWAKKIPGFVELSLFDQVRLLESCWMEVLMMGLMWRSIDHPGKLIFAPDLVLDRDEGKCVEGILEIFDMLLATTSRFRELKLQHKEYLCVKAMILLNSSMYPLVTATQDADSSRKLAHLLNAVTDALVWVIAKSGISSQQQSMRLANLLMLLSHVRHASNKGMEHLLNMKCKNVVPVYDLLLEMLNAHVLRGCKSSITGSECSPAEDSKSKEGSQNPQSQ

SMILES	RBA [1]	RBA [2]	Ratio (Homo sapiens)
COc1ccc(-c2ccc(/C=N/O)c(O)c2C)cc1	0.007%	0.005%	–
O/N=C/c1ccc(-c2ccccc2)cc1O	< 0.004%	< 0.004%	–
Cc1c(-c2ccc(O)cc2)ccc(/C=N/O)c1O	4.1%	0.249%	16
O/N=C/c1ccc(-c2ccc(O)cc2)cc1O	0.553%	0.007%	79
N#Cc1c(-c2ccc(O)cc2)ccc(/C=N/O)c1O	0.078%	0.004%	20
COc1ccc(-c2ccc(/C=N/O)c(O)c2)cc1	< 0.004%	0.01%	–
